Laboratory results: ChEMBL document CHEMBL1201862, “PubChem BioAssay data set” (2004)
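Test compounds were applied to cells in 96-well plates for 48 hours at 5 doses. GI50 marks 50% less growth.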 The source made the active and inactive calls. Rule as the data show it: active = GI50 up to about 1.1 µM and inactive = higher. Where a SMILES comes first, the peptide text is derived from it. The star is where a group is joined. Cbz = O=C(OCc1ccccc1)*; Boc = CC(C)(C)OC(=O)*; Bn = c1ccc(C*)cc1

Columns and labels:
Test in all cases: NCI-60 cell line screen, 48 h
[1] = tested on: SNB-75
[2] = tested on: OVCAR-4
[3] = tested on: UO-31
[4] = tested on: MCF7
[5] = tested on: MOLT-4
[6] = tested on: UACC-62
[7] = tested on: SF-539
[8] = tested on: COLO 205
[9] = tested on: HCC 2998
[10] = tested on: HT-29
[11] = tested on: UACC-257
[12] = tested on: CCRF-CEM
[13] = tested on: PC-3
[14] = tested on: CAKI-1
[15] = tested on: 786-0
[16] = tested on: HCT-116
[17] = tested on: SNB-19
[18] = tested on: NCI/ADR-RES
[19] = tested on: IGROV-1
[20] = tested on: HOP-92

Measured: GI50

O/N=C1/C2CC3CC1(c1ccccc1)CC(/C3=N/O)/C2=N\O (stereo not drawn)
inactive: [1] > 100 µM | [2] > 100 µM | [3] > 100 µM | [4] > 100 µM | [5] > 100 µM | [6] > 100 µM | [7] > 100 µM | [8] > 100 µM | [9] > 100 µM | [10] > 100 µM | [11] > 100 µM | [12] > 100 µM | [13] 95.9 µM | [14] > 100 µM | [15] > 100 µM | [16] > 100 µM | [17] > 100 µM

CC(C)(Cc1ccccc1)N1C(=O)N1C(C)(C)Cc1ccccc1
inactive: [1] 32.5 µM | [2] 34.7 µM | [3] 14.1 µM | [4] 31.5 µM | [5] 18.7 µM | [6] 23.8 µM | [7] 33.3 µM | [8] 25.6 µM | [9] > 100 µM | [10] 15.5 µM | [11] 40.9 µM | [12] 20.8 µM | [18] > 100 µM | [13] 47.5 µM | [14] > 100 µM | [15] 21.6 µM | [16] 40.6 µM | [17] > 100 µM | [19] 29.9 µM

COc1ccc(Nc2nc3c([nH]2)c(=O)n(C)c(=O)n3C)cc1
inactive: [1] > 10 µM | [2] > 10 µM | [4] > 10 µM | [5] > 10 µM | [6] > 10 µM | [8] > 10 µM | [9] > 10 µM | [10] > 10 µM | [11] > 10 µM | [12] > 10 µM | [20] > 10 µM | [13] > 10 µM | [14] > 10 µM | [15] > 10 µM | [19] > 10 µM

CN(C)CCCNC(=O)N/N=C/c1ccc(O)cc1
inactive: [1] 59.2 µM | [3] > 100 µM | [4] > 100 µM | [5] > 100 µM | [6] > 100 µM | [7] > 100 µM | [8] > 100 µM | [9] > 100 µM | [10] > 100 µM | [11] > 100 µM | [12] > 100 µM | [18] > 100 µM | [13] > 100 µM | [14] > 100 µM | [15] > 100 µM | [16] > 100 µM | [17] > 100 µM | [19] > 100 µM

CC(/C=C/c1ccccc1)=N\NC(=S)N/N=C(C)/C=C/c1ccccc1
inactive: [1] 22.5 µM | [2] 5.4 µM | [3] 4.33 µM | [4] 6.46 µM | [5] 5.93 µM | [6] 26.2 µM | [7] 21.1 µM | [8] 19 µM | [9] 20.9 µM | [10] 8.69 µM | [11] 20.8 µM | [12] 6.38 µM | [18] 16.1 µM | [13] 23.9 µM | [15] 11 µM | [16] 4.03 µM | [17] 23.2 µM | [19] 13.4 µM

N#Cc1c(-c2ccccc2)nc(-c2ccccc2)sc1=S
inactive: [1] > 100 µM | [2] > 100 µM | [3] > 100 µM | [4] > 100 µM | [6] > 100 µM | [7] > 100 µM | [8] > 100 µM | [9] > 100 µM | [10] > 100 µM | [11] > 100 µM | [12] 49.2 µM | [18] > 100 µM | [20] > 100 µM | [14] > 100 µM | [15] > 100 µM | [16] > 100 µM | [17] > 100 µM | [19] > 100 µM

COC(=O)C1=C(OC(=O)/C(=C/c2ccccc2)c2ccc(OC)cc2)C(C(=O)OC)[C@@]2(O)[C@@H](C(=O)OC)[C@H](C)C[C@@H]1[C@@H]2C(=O)OC (stereo partly drawn)
inactive: [1] 24.2 µM | [2] > 100 µM | [3] > 100 µM | [4] > 100 µM | [5] > 100 µM | [6] > 100 µM | [7] > 100 µM | [8] > 100 µM | [9] > 100 µM | [10] > 100 µM | [11] > 100 µM | [12] > 100 µM | [18] > 100 µM | [13] > 100 µM | [14] > 100 µM | [15] 26.1 µM | [16] > 100 µM | [17] 32.4 µM | [19] 55.7 µM

N[C@H](Cc1ccc2oc3cc(=O)c4ccccc4c-3nc2c1)C(=O)O
inactive: [1] 67 µM | [2] > 100 µM | [3] > 100 µM | [4] 28.5 µM | [5] 37.8 µM | [6] 26.7 µM | [7] 42.8 µM | [8] 30.3 µM | [10] 29.2 µM | [11] 29.8 µM | [12] 20.9 µM | [18] > 100 µM | [20] > 100 µM | [14] > 100 µM | [15] 89.9 µM | [16] 46.3 µM | [17] 34.4 µM | [19] 32.3 µM

Cc1cc2c(O)c(c1)CN(Cc1ccccc1)Cc1cc(C)cc(c1O)CN(Cc1ccccc1)Cc1cc(C)cc(c1O)CN(Cc1ccccc1)C2
inactive: [1] 50.8 µM | [2] > 100 µM | [3] > 100 µM | [4] > 100 µM | [5] > 100 µM | [6] > 100 µM | [7] > 100 µM | [8] > 100 µM | [9] > 100 µM | [10] > 100 µM | [11] > 100 µM | [12] > 100 µM | [18] > 100 µM | [13] > 100 µM | [14] > 100 µM | [15] > 100 µM | [16] > 100 µM | [17] > 100 µM | [19] > 100 µM

Cn1nc(S(N)(=O)=O)s/c1=N/C(N)=S
inactive: [2] > 100 µM | [3] > 100 µM | [4] > 100 µM | [5] > 100 µM | [6] > 100 µM | [7] > 100 µM | [8] > 100 µM | [9] > 100 µM | [10] > 100 µM | [11] > 100 µM | [12] > 100 µM | [18] > 100 µM | [20] > 100 µM | [14] > 100 µM | [15] > 100 µM | [16] > 100 µM | [17] > 100 µM

COC(=O)CSc1[nH]c2nc(C)nc(Nc3ccccc3)c2c1C#N
inactive: [1] > 10 µM | [2] > 10 µM | [4] > 10 µM | [5] > 10 µM | [6] > 10 µM | [8] > 10 µM | [9] > 10 µM | [10] > 10 µM | [11] > 10 µM | [12] > 10 µM | [20] 9.42 µM | [13] > 10 µM | [14] > 10 µM | [15] > 10 µM | [19] > 10 µM

C=CCNC(NCC=C)=C(C(Cl)=C(Cl)Cl)[N+](=O)[O-]
inactive: [1] 89.1 µM | [2] 31.8 µM | [3] 37.5 µM | [4] 35.9 µM | [5] 31.5 µM | [6] > 100 µM | [7] 21.3 µM | [8] 19.7 µM | [9] > 100 µM | [10] 54.6 µM | [11] > 100 µM | [12] 26.5 µM | [18] 43.2 µM | [13] 51.2 µM | [14] 30.5 µM | [15] 34.9 µM | [16] 30.4 µM | [17] > 100 µM

O=c1c2cc([N+](=O)[O-])ccc2n2n1CCCCC2
inactive: [1] > 100 µM | [2] > 100 µM | [3] > 100 µM | [5] > 100 µM | [6] > 100 µM | [7] > 100 µM | [8] > 100 µM | [9] > 100 µM | [10] > 100 µM | [11] > 100 µM | [12] > 100 µM | [18] > 100 µM | [20] > 100 µM | [13] > 100 µM | [14] > 100 µM | [15] > 100 µM | [16] > 100 µM | [17] > 100 µM | [19] > 100 µM

CC(C)(C)OC(=O)NC(Cc1ccc(OCc2ccccc2)cc1)C(=O)NC(CCCCNC(=O)OCc1ccccc1)C(=O)O (stereo not drawn) (Boc-Tyr(Bn)-Lys(Cbz)-OH; configuration not given here)
inactive: [1] > 100 µM | [3] 73.8 µM | [4] 34.6 µM | [5] 28 µM | [6] 20.5 µM | [8] 29.5 µM | [9] 35.3 µM | [10] 62.1 µM | [11] 87.9 µM | [12] > 100 µM | [20] 16.4 µM | [13] 68.1 µM | [15] 54.1 µM | [16] 31.3 µM | [17] 27.3 µM | [19] 34 µM

O=C(CCCC(=O)N1CC(CCl)c2ccc([N+](=O)[O-])cc21)N1CC(CCl)c2ccc([N+](=O)[O-])cc21 (stereo not drawn)
inactive: [2] > 100 µM | [3] > 100 µM | [4] > 100 µM | [5] > 100 µM | [6] > 100 µM | [7] > 100 µM | [8] > 100 µM | [9] 63.8 µM | [10] > 100 µM | [11] > 100 µM | [12] > 100 µM | [20] > 100 µM | [13] > 100 µM | [14] > 100 µM | [15] > 100 µM | [16] > 100 µM | [17] > 100 µM
